Measured values from US12145929B2, “Piperidine derivative and pharmaceutical composition for inhibiting autotaxin comprising same” (NEXTGEN BIOSCIENCE CO., LTD., priority 2021, dated 2024).

Molecular target: human Autotaxin protein (Homo sapiens, UniProt Q13822)
Assay: Evaluation of inhibitory activity against human Autotaxin protein (18:1 LysoPC substrate, choline assay kit, absorbance 570 nm)
Format: biochemical
Details: compound at 500 nM, 2 hours at 37° C.
Method: The solution of each synthesized compound (80 uM, 100% dimethyl sulfoxide) was sequentially diluted 5 times with dimethyl sulfoxide to prepare 6 concentrations. Each concentration of compound was diluted two-fold with 1× test buffer (50 mM Tris-Cl (pH 8.0), 5 mM KCl, 1 mM CaCl2), 1 mM MgCl2, 140 mM NaCl, deionized water, 1 mg/mL BSA), and 1 uL (1.25% dimethyl sulfoxide) of this diluted mixture was dispensed into each well of a 96 well clear round bottom plate. 9 uL of 1× test buffer were added to each well, followed by the addition of 20 uL of 240 nM human Autotaxin protein (buffer: 50 mM Tris-HCl, pH 8.0, with 150 mM sodium chloride and 20% glycerol). 10 uL of sonicated 360 uM 18:1 LysoPC (diluted with 1× test buffer) were added to each well. The reaction was performed for 2 hours in a shaking incubator at 37° C., and a secondary reaction mixture (choline assay kit, KA1662) (65 uL of 1× test buffer: 1 uL of choline oxidase: 1 uL of dye probe) was prepared. 60 uL of the secondary reaction mixture were added to the reaction plate and reacted on a shaker for 30 minutes. Using a SpectraMax iD3 microplate reader, the absorbance was measured at a wavelength of 570 nm. The percentage of inhibition activity (% inhibition) was calculated by the Formula: (1−Absorbancetestgroup/Absorbancecontrol group)×100.

Row | inhibition at 0.5 µM | inhibition (%) at 500 nM | SMILES
1 | 99% |  | c1ccc2c(c1)CC(Nc1ncc(-c3nnc(N4CCC(c5cnn[nH]5)CC4)o3)cn1)C2 [Example 1, 5-(5-(4-(1H-1,2,3-Triazol-5-yl)piperidin-1-yl)-1,3,4-oxadiazol-2-yl)-N-(2,3-dihydro-1H-inden-2-yl)pyrimidin-2-amine]
2 | 100% |  | Fc1ccc2c(c1)CC(Nc1ncc(-c3nnc(N4CCC(c5cnn[nH]5)CC4)o3)cn1)C2 (stereo not shown) [Example 2, 5-(5-(4-(1H-1,2,3-Triazol-5-yl)piperidin-1-yl)-1,3,4-oxadiazol-2-yl)-N-(5-fluoro-2,3-dihydro-1H-inden-2-yl)pyrimidin-2-amine]
3 | 100% |  | Clc1ccc2c(c1)CC(Nc1ncc(-c3nnc(N4CCC(c5cnn[nH]5)CC4)o3)cn1)C2 (stereo not shown) [Example 3, 5-(5-(4-(1H-1,2,3-Triazol-5-yl)piperidin-1-yl)-1,3,4-oxadiazol-2-yl)-N-(5-chloro-2,3-dihydro-1H-inden-2-yl)pyrimidin-2-amine]
4 | 90% |  | Brc1ccc2c(c1)CC(Nc1ncc(-c3nnc(N4CCC(c5cnn[nH]5)CC4)o3)cn1)C2 (stereo not shown) [Example 4, 5-(5-(4-(1H-1,2,3-Triazol-5-yl)piperidin-1-yl)-1,3,4-oxadiazol-2-yl)-N-(5-bromo-2,3-dihydro-1H-inden-2-yl)pyrimidin-2-amine]
5 | 100% |  | Fc1cc2c(cc1F)CC(Nc1ncc(-c3nnc(N4CCC(c5cnn[nH]5)CC4)o3)cn1)C2 [Example 5, 5-(5-(4-(1H-1,2,3-Triazol-5-yl)piperidin-1-yl)-1,3,4-oxadiazol-2-yl)-N-(5,6-difluoro-2,3-dihydro-1H-inden-2-yl)pyrimidin-2-amine]
6 | 91% |  | Clc1cc2c(cc1Cl)CC(Nc1ncc(-c3nnc(N4CCC(c5cnn[nH]5)CC4)o3)cn1)C2 [Example 6, 5-(5-(4-(1H-1,2,3-Triazol-5-yl)piperidin-1-yl)-1,3,4-oxadiazol-2-yl)-N-(5,6-dichloro-2,3-dihydro-1H-inden-2-yl)pyrimidin-2-amine]
7 | 40% |  | c1cnc2c(n1)CC(Nc1ncc(-c3nnc(N4CCC(c5cnn[nH]5)CC4)o3)cn1)C2 [Example 7, N-(5-(5-(4-(1H-1,2,3-triazol-5-yl)piperidin-1-yl)-1,3,4-oxadiazol-2-yl)pyrimidin-2-yl)-6,7-dihydro-5H-cyclopenta[b]pyrazin-6-amine]
8 | 99% |  | CC1CC(c2cnn[nH]2)CCN1c1nnc(-c2cnc(NC3Cc4ccc(Br)cc4C3)nc2)o1 (stereo not shown) [Example 11, N-(5-bromo-2,3-dihydro-1H-inden-2-yl)-5-(5-(2-methyl-4-(1H-1,2,3-triazol-5-yl)piperidin-1-yl)-1,3,4-oxadiazol-2-yl)pyrimidin-2-amine]
9 | 84% |  | Brc1ccc2c(c1)CC(Nc1ccc(-c3nnc(N4CCC(c5cnn[nH]5)CC4)o3)cn1)C2 (stereo not shown) [Example 12, 5-(5-(4-(1H-1,2,3-Triazol-5-yl)piperidin-1-yl)-1,3,4-oxadiazol-2-yl)-N-(5-bromo-2,3-dihydro-1H-inden-2-yl)pyridin-2-amine]
10 | 75% |  | Brc1ccc2c(c1)CC(Nc1cnc(-c3nnc(N4CCC(c5cnn[nH]5)CC4)o3)cn1)C2 (stereo not shown) [Example 13, 5-(5-(4-(1H-1,2,3-Triazol-5-yl)piperidin-1-yl)-1,3,4-oxadiazol-2-yl)-N-(5-bromo-2,3-dihydro-1H-inden-2-yl)pyrazin-2-amine]
11 | 5% |  | Clc1cc(NC2Cc3ccc(Br)cc3C2)ncc1-c1nnc(N2CCC(c3cnn[nH]3)CC2)o1 (stereo not shown) [Example 14, 5-(5-(4-(1H-1,2,3-Triazol-5-yl)piperidin-1-yl)-1,3,4-oxadiazol-2-yl)-N-(5-bromo-2,3-dihydro-1H-inden-2-yl)-4-chloropyridin-2-amine]
12 | 100% |  | Clc1cc(Cl)cc(CNc2ncc(-c3nnc(N4CCC(c5cnn[nH]5)CC4)o3)cn2)c1 [Example 15, 5-(5-(4-(1H-1,2,3-Triazol-5-yl)piperidin-1-yl)-1,3,4-oxadiazol-2-yl)-N-(3,5-dichlorobenzyl)pyrimidin-2-amine]
13 |  | 84% | Clc1cc(Cl)cc(CCNc2ncc(-c3nnc(N4CCC(c5cnn[nH]5)CC4)o3)cn2)c1 [Example 16, 5-(5-(4-(H-1,2,3-Triazol-5-yl)piperidin-1-yl)-1,3,4-oxadiazol-2-yl)-N-(3,5-dichlorophenethyl)pyrimidin-2-amine]

The remaining lines, values behind:

Row | SMILES | inhibition at 0.5 µM | inhibition (%) at 500 nM
14 | c1ccc2c(c1)CC(Nc1ccc(-c3nnc(N4CCC(c5cnn[nH]5)CC4)o3)nn1)C2 [Example 8, 6-(5-(4-(1H-1,2,3-Triazol-5-yl)piperidin-1-yl)-1,3,4-oxadiazol-2-yl)-N-(2,3-dihydro-1H-inden-2-yl)pyridazin-3-amine] | 14% | 
15 | c1ccc2c(c1)CC(Nc1ncc(-c3nnc(N4CCC(n5cncn5)CC4)o3)cn1)C2 [Example 9, 5-(5-(4-(1H-1,2,4-Triazol-1-yl)piperidin-1-yl)-1,3,4-oxadiazol-2-yl)-N-(2,3-dihydro-1H-inden-2-yl)pyrimidin-2-amine] | 81% | 
16 | Cc1ncn(C2CCN(c3nnc(-c4cnc(NC5Cc6ccccc6C5)nc4)o3)CC2)n1 [Example 10, N-(2,3-dihydro-1H-inden-2-yl)-5-(5-(4-(3-methyl-1H-1,2,4-triazol-1-yl)piperidin-1-yl)-1,3,4-oxadiazol-2-yl)pyrimidin-2-amine] | 75% | 
17 | O=C(CCc1cnc(NC2Cc3ccccc3C2)nc1)N1CCC(c2cnn[nH]2)CC1 [Example 17, 1-(4-(1H-1,2,3-Triazol-5-yl)piperidin-1-yl)-3-(2-((2,3-dihydro-1H-inden-2-yl)amino)pyrimidin-5-yl)propan-1-one] | 92% | 
18 | O=C(CCc1cnc(NC2Cc3ccccc3C2)nc1)N1CCC(c2cnc[nH]2)CC1 [Example 18, 1-(4-(1H-Imidazol-5-yl)piperidin-1-yl)-3-(2-((2,3-dihydro-1H-inden-2-yl)amino)pyrimidin-5-yl)propan-1-one] | 85% | 
19 | O=C(CCCc1nnc(NC2Cc3ccccc3C2)s1)N1CCC(c2cnn[nH]2)CC1 [Example 19, 1-(4-(1H-1,2,3-Triazol-5-yl)piperidin-1-yl)-4-(5-((2,3-dihydro-1H-inden-2-yl)amino)-1,3,4-thiadiazol-2-yl)butan-1-one] | 43% | 
20 | O=C(CCCc1nnc(NC2Cc3ccccc3C2)s1)N1CCC(c2cnc[nH]2)CC1 [Example 20, 1-(4-(1H-Imidazol-5-yl)piperidin-1-yl)-4-(5-((2,3-dihydro-1H-inden-2-yl)amino)-1,3,4-thiadiazol-2-yl)butan-1-one] | 14% | 
21 | O=C(CCCc1nnc(NC2Cc3ccccc3C2)o1)N1CCC(c2cnn[nH]2)CC1 [Example 21, 1-(4-(1H-1,2,3-Triazol-5-yl)piperidin-1-yl)-4-(5-((2,3-dihydro-1H-inden-2-yl)amino)-1,3,4-oxadiazol-2-yl)butan-1-one] | 64% | 
22 | O=C(CCCc1nnc(NC2Cc3ccccc3C2)o1)N1CCC(c2cnc[nH]2)CC1 [Example 22, 1-(4-(1H-Imidazol-5-yl)piperidin-1-yl)-4-(5-((2,3-dihydro-1H-inden-2-yl)amino)-1,3,4-oxadiazol-2-yl)butan-1-one] | 17% | 
23 | O=C(COCc1nnc(NC2Cc3ccccc3C2)s1)N1CCC(c2cnn[nH]2)CC1 [Example 23, 1-(4-(1H-1,2,3-Triazol-5-yl)piperidin-1-yl)-2-((5-((2,3-dihydro-1H-inden-2-yl)amino)-1,3,4-thiadiazol-2-yl)methoxy)ethanone] | 20% | 
24 | Fc1cc2c(cc1F)CC(Nc1ncc(-c3nnc(N4CCC(c5nnc(C(F)(F)F)o5)CC4)o3)cn1)C2 [Example 24, N-(5,6-difluoro-2,3-dihydro-1H-inden-2-yl)-5-(5-(4-(5-(trifluoromethyl)-1,3,4-oxadiazol-2-yl)piperidin-1-yl)-1,3,4-oxadiazol-2-yl)pyrimidin-2-amine] | 30.2% | 
25 | Fc1cc2c(cc1F)CC(Nc1ncc(-c3nnc(N4CCC(c5nnc(C(F)F)o5)CC4)o3)cn1)C2 [Example 25, N-(5,6-difluoro-2,3-dihydro-1H-inden-2-yl)-5-(5-(4-(5-(difluoromethyl)-1,3,4-oxadiazol-2-yl)piperidin-1-yl)-1,3,4-oxadiazol-2-yl)pyrimidin-2-amine] | 31.1% | 
26 | Fc1cc2c(cc1F)CC(Nc1ncc(-c3nnc(N4CCC(c5ncon5)CC4)o3)cn1)C2 [Example 26, 5-(5-(4-(1,2,4-Oxadiazol-3-yl)piperidin-1-yl)-1,3,4-oxadiazol-2-yl)-N-(5,6-difluoro-2,3-dihydro-1H-inden-2-yl)pyrimidin-2-amine] | 27.9% | 
27 | Fc1cc2c(cc1F)CC(Nc1ncc(-c3nnc(N4CCC(c5nnco5)CC4)o3)cn1)C2 [Example 27, 5-(5-(4-(1,3,4-Oxadiazol-2-yl)piperidin-1-yl)-1,3,4-oxadiazol-2-yl)-N-(5,6-difluoro-2,3-dihydro-1H-inden-2-yl)pyrimidin-2-amine] | 29% | 
28 | Fc1cc2c(cc1F)CC(Nc1ncc(-c3nnc(N4CCC(n5cnnn5)CC4)o3)cn1)C2 [Example 28, 5-(5-(4-(1H-Tetrazol-1-yl)piperidin-1-yl)-1,3,4-oxadiazol-2-yl)-N-(5,6-difluoro-2,3-dihydro-1H-inden-2-yl)pyrimidin-2-amine] | 52.5% | 
